The values below come from ChEMBL document CHEMBL5357009, “Positive Allosteric Modulators of alpha7 Nicotinic Acetylcholine Receptor for the Treatment of Several Central Nervous System Diseases” (ACS Med Chem Lett, 2024).

Molecules are shown by their SMILES.

For the assay, the target named is Neuronal acetylcholine receptor subunit alpha-7 (Homo sapiens, UniProt P36544). The assay can be described thus: Positive allosteric modulation of human alpha7 nAChR expressed in HEK cells assessed as potentiation of acetylcholine induced peak current amplitude preincubated for 58 secs followed by acetylcholine stimulation for 1 secs by automated patch-clamp electrophysiology. The format is cell-based. A general note: Patch clamp records ionic current or voltage across a cell membrane.
Neuronal acetylcholine receptor subunit alpha-7, sequence (P36544 whole entry): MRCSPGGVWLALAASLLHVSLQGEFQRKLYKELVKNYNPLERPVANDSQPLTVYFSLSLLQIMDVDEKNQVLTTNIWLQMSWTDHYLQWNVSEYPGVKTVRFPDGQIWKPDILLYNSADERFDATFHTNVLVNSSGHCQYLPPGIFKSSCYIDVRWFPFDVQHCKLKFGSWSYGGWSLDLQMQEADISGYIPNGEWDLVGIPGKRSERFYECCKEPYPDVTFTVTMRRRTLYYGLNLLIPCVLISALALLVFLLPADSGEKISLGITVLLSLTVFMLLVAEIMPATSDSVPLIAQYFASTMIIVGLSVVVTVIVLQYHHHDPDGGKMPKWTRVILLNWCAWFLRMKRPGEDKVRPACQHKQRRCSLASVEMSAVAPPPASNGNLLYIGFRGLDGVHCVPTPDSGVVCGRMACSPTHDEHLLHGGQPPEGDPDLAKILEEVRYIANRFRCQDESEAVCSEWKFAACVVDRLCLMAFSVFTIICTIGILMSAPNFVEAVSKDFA
Usually EC50 stands for the concentration needed to bring the measured effect to its halfway point. Turning to `CCOc1ccc([C@H](COC)NC(=O)C2CC23CCCc2ccccc23)cc1` (some centres undefined), the half-maximal effective concentration (EC50) is 740 nM. As for `O=C(N[C@@H](CO)C1CCCCC1)C1CC12COc1ccc(F)cc12` (some centres undefined), the figure is 770 nM; as for `O=C(NC1(c2ccc(F)cc2)COC1)C1CC12CCc1ccccc12` (centres undefined), 3200 nM. Turning to `O=C(N[C@@H](CO)C1CCCCC1)C1CC12COc1ccccc12` (some centres undefined), the half-maximal effective concentration (EC50) is 630 nM. As for `CCOc1ccc([C@H](COC)NC(=O)C2CC23CCc2cc(F)ccc23)cc1` (some centres undefined), the figure is 590 nM. As for `O=C(NC1(c2ccc(F)cc2)COC1)C1CC12CCc1ccc(F)cc12` (centres undefined), the EC50 was determined as 820 nM. The result for `CCOc1ccc([C@H](COC)NC(=O)C2CC23CCc2ccc(F)cc23)cc1` (some centres undefined) reads 700 nM; that for `CCOc1ccc([C@H](CF)NC(=O)C2CC23COc2ccc(F)cc23)cn1` (some centres undefined), 790 nM; that for `CCOc1ccc([C@@H](NC(=O)C2CC23COc2ccc(F)cc23)C(F)F)cn1` (some centres undefined), 3000 nM.
